Results from patent US20260248799A1, “COMBINATIONS OF RETINALDEHYDE DEHYDROGENASE 1 (RALDH1) INHIBITORS AND IMMUNOSTIMULATORS AND METHODS USING SAME” (The Trustees of the University of Pennsylvania, priority 2023, published 2026).

How the values were obtained:
Muscarinic M3 = target: T1, Muscarinic M3 (Homo sapiens, UniProt P20309); assay: Safetyscreen: Muscarinic M3; format: binding; details: read-out: % Inh. Muscarinic M3
T1 construct: Eurofins Cereps Panlabs (contract panel)

Transporter, GABA = target: T2, Transporter, GABA (Rattus norvegicus, UniProt P23978); assay: Safetyscreen: GABA transporter; format: binding; details: read-out: % Inh. Transporter, GABA
T2 construct: purchased Eurofins Cereps Panlabs

[1] = system: Glycine, Strychnine-Sensitive; assay: Safetyscreen: Glycine, Strychnine-Sensitive; format: binding, rat; details: 10 μM
Adrenergic β2 = target: T3, Adrenergic β2 (Homo sapiens, UniProt P07550); assay: Safetyscreen: Adrenergic β2; format: binding; details: read-out: % Inh. Adrenergic β2
T3 construct: Eurofins Cerep Panlabs (contract panel)
T3 sequence (P07550 whole entry): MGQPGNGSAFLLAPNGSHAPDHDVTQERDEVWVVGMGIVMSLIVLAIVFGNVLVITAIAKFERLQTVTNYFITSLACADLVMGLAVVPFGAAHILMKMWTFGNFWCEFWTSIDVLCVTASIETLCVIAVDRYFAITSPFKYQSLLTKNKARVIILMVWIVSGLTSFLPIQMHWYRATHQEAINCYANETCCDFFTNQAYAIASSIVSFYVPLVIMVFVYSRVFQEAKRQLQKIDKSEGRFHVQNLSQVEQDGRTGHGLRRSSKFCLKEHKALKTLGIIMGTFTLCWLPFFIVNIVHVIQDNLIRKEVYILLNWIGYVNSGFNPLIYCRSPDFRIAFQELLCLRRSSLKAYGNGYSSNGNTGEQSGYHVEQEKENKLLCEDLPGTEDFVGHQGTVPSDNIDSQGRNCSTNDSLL

Melanocortin MC4 = target: T4, Melanocortin MC4 (Homo sapiens, UniProt P32245); assay: Safetyscreen: MC4; format: binding; details: read-out: % Inh. Melanocortin MC4
T4 construct: Eurofins Cereps Panlabs (contract panel)

Neuropeptide Y Y1 = target: T5, Neuropeptide Y Y1 (Homo sapiens, UniProt P25929); assay: Safetyscreen: Neuropeptide Y Y1; format: binding; details: read-out: % Inh. Neuropeptide Y Y1
T5 construct: Eurofins Cereps Panlabs (contract panel)
T5 sequence (P25929 whole entry): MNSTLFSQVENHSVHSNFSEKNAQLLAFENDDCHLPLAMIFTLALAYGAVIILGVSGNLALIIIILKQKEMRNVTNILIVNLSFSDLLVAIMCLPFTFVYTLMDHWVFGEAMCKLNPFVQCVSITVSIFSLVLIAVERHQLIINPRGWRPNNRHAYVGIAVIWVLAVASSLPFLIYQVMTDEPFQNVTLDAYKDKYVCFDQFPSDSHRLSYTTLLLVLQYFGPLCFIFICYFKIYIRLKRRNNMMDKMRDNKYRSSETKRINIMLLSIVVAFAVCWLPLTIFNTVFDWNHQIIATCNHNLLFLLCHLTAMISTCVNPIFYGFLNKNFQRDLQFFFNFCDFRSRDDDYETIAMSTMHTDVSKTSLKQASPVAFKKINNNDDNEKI

[2] = target: T6, Nicotinic Acetylcholine α1, Bungarotoxin (Homo sapiens, UniProt P02708+P07510+Q07001); assay: Safetyscreen: Nicotinic Acetylcholine α1; format: binding; details: read-out: % Inh. Nicotinic Acetylcholine α1, Bungarotoxin
T6 construct: Eurofins Cereps Panlabs (contract panel)
T6 sequence (P11230 24-501): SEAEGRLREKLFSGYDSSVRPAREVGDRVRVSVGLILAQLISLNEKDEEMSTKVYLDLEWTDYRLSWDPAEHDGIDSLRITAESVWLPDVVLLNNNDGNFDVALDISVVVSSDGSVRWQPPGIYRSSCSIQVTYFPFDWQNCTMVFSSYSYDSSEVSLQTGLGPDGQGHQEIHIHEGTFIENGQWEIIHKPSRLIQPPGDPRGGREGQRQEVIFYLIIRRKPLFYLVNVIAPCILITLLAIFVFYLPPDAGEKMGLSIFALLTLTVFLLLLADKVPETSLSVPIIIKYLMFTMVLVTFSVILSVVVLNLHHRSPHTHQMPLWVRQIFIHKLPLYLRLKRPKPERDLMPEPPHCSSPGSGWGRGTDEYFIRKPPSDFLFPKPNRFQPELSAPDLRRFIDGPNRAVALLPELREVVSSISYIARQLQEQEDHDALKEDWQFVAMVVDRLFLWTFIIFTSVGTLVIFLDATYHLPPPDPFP
T6 sequence (P02708 21-457): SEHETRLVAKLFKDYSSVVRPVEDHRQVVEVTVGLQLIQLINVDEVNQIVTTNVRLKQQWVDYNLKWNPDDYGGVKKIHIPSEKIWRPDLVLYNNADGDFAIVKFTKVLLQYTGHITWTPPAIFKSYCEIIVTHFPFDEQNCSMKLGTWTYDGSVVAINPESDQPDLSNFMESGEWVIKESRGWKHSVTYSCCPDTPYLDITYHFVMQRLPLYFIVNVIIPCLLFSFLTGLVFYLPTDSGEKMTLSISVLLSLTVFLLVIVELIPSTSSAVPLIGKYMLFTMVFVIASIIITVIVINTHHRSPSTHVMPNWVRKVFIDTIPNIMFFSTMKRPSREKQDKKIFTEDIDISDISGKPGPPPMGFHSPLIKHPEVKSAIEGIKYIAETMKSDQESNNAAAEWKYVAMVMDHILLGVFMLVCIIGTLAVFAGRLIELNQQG
T6 sequence (Q07001 22-517): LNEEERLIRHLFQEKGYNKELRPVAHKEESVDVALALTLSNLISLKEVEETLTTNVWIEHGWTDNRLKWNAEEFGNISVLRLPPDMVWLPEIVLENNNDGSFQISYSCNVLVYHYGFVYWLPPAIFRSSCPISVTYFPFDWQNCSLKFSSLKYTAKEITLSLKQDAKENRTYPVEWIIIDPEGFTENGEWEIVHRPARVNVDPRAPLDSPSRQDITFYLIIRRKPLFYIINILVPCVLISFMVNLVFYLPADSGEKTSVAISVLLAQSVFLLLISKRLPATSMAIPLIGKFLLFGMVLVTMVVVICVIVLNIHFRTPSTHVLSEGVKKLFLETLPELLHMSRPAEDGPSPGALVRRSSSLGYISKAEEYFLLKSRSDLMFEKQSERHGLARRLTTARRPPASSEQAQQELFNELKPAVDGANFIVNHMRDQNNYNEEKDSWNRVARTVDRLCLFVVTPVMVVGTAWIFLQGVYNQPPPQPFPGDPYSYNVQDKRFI
T6 sequence (P07510 23-517): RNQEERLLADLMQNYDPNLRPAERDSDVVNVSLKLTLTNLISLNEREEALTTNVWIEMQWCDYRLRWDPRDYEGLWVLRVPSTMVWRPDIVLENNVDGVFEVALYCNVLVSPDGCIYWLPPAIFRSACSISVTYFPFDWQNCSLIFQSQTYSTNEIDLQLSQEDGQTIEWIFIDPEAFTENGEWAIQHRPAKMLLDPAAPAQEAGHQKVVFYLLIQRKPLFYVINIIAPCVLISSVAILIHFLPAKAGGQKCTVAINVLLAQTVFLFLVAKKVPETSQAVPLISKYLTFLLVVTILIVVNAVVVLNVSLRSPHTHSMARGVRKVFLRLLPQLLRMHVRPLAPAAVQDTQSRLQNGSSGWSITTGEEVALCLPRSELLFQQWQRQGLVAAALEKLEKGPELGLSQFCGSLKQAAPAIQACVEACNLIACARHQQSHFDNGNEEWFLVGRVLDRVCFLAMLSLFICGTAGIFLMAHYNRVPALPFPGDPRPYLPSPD

Histamine H2 = target: T7, Histamine H2 (Homo sapiens, UniProt P25021); assay: Safetyscreen: Histamine H2; format: binding; details: read-out: % Inh. Histamine H2
T7 construct: purchased Eurofins Cereps Panlabs

Tachykinin NK1 = target: T8, Tachykinin NK1 (Homo sapiens, UniProt P25103); assay: Safetyscreen: Tachykinin NK1; format: binding; details: read-out: % Inh. Tachykinin NK1
T8 construct: Eurofins Cereps Panlabs (contract panel)
T8 sequence (P25103 whole entry): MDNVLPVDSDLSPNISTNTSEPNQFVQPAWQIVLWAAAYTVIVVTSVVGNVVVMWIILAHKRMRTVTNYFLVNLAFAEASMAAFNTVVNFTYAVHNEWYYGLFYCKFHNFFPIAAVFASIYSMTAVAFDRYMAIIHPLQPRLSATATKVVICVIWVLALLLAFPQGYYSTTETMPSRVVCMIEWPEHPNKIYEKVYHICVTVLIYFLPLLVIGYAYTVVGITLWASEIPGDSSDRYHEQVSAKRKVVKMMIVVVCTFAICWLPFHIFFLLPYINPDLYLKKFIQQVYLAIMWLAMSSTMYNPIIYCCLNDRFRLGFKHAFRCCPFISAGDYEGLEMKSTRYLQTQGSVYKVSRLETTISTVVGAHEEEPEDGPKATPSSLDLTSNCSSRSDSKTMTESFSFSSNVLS

Chemokine CCR1 = target: T9, Chemokine CCR1 (Homo sapiens, UniProt P32246); assay: Safetyscreen: CCR1; format: binding; details: read-out: % Inh. Chemokine CCR1
T9 construct: purchased Eurofins Cereps Panlabs

[3] = target: T10, Transporter, Serotonin (5-Hydroxytryptamine) (SERT) (Homo sapiens, UniProt P31645); assay: Safetyscreen: SERT; format: binding; details: read-out: % Inh. Transporter, Serotonin (5-Hydroxytryptamine) (SERT)
T10 construct: purchased Eurofins Cereps Panlabs

[4] = system: Calcium Channel L-Type, Phenylalkylamine; assay: Safetyscreen: Ca channel L-type, phenylalkylamine; format: binding, rat; details: 10 μM
Sodium Channel, Site 2 = assay: Safetyscreen: Sodium Channel, Site 2; format: binding, rat; details: 10 μM
Adrenergic α2B = target: T11, Adrenergic α2B (Homo sapiens, UniProt P18089); assay: Safetyscreen: Adrenergic α2B; format: binding; details: read-out: % Inh. Adrenergic α2B
T11 construct: Eurofins Cerep Panlabs (contract panel)

Opiate κ(OP2, KOP) = target: T12, Opiate κ(OP2, KOP) (Homo sapiens, UniProt P41145); assay: Safetyscreen: Opiate κ; format: binding; details: read-out: % Inh. Opiate κ(OP2, KOP)
T12 construct: Eurofins Cereps Panlabs (contract panel)
T12 sequence (P41145 whole entry): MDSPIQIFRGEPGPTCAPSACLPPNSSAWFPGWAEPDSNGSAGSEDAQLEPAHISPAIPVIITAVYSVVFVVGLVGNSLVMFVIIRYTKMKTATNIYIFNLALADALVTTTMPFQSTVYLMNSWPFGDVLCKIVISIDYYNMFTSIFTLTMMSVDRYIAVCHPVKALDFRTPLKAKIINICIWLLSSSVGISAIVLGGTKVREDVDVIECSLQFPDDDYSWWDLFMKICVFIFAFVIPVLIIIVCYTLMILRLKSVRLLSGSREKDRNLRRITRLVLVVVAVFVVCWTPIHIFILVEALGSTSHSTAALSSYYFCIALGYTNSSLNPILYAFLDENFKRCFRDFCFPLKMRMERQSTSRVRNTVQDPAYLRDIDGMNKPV

[5] = Toxicity observations with Raldh1-INH; details: mouse, in vivo
Description: Male CD1 or C57BL/6J mice between 6 and 8 weeks old and weighing approximately 20 to 30 grams were dosed with compound 86, compound 91, and compound 99 at 2 mg/kg (IV), 10 mg/kg (PO), and 10 or 30 mg/kg (IP). The compounds were formulated using a 20% hydroxypropyl-beta-cyclodextrin (HPbCD) solution in saline, was made on the day of dosing or directly prior to dosing. Each treatment group consisted of three mice, and plasma was collected at 5 minutes, 15 minutes, 30 minutes, 1 hour, 2 hours, 4 hours, 8 hours, 12 hours, and 24 hours post-dose for IV administration and at 15 minutes, 30 minutes, 1 hour, 2 hours, 4 hours, 8 hours, 12 hours, and 24 hours post-dose for PO administration. Approximately 0.025 mL of blood was collected from the dorsal metatarsal vein at each time point. […] Plasma samples were then stored in polypropylene tubes, quickly frozen, and kept at −75° C. until analyzed by LC/MS/MS. The following pharmacokinetic parameters were measured: Terminal half-life (T½), Concentration at immediately after injection (C0), Maximum concentration (Cmax), Time to reach max concentration (Tmax), Clearance (CL), Volume of distribution (Vd), Area under the curve (AUClast), and bioavailability (% F). Animals were also monitored during the in-life phase by once daily cage side observations; any adverse clinical signs were noted as part of the PK report.

monocytes in Huh7 tumors = assay: Differentiation of human monocytes injected into Huh7 tumors in NU/J mice; format: in vivo, mouse; details: 10 mg/kg, i.p, daily
Description: FIGS. 22A-22E: RALDH1 inhibition blocks RA-mediated effects of HCC on monocyte differentiation. FIGS. 22A-22B: Circulating primary human monocytes from donors (FIG. 22A) or murine monocytes from bone marrow (FIG. 22B) were cocultured with SNU398 (Human HCC) cells or treated with SNU398-conditioned media (CM) in a DC differentiation system (GM-CSF and IL-4). Two-color histograms show the frequencies of DCs (CD11c^+CD1a^+ for human and CD11c^+MHCII^+ for mouse). The presence of SNU398 or its CM suppressed DC differentiation, which is reversed when SNU398 cells are treated with C86. Three or more independent experiments were performed with at least three replicates per experimental group. Unpaired t test, two-tailed. FIG. 22C: Huh7 (human HCC) cells were subcutaneously injected into flanks of NU/J mice. 12 days later the tumor size was about 50 mm^3 and C86 or vehicle treatment (10 mg/kg, i.p, daily injection) was started. […] The frequencies of the host (murine) DCs (CD45^+F4/80^−CD11C^+MHCII-high) and macrophages (CD45^+F4/80^+) are quantified in a bar graph. […] Shown are the representative FCM plot (histogram) and DC quantification (bar graph). […]
Monocytes were isolated (as described above) from mouse bone marrow of C57BL/6 mice and counted. […] Tumors were harvested at specified time points and analyzed by flow cytometry. […]

[6] = target: T13, Transporter, Dopamine (DAT) (Homo sapiens, UniProt Q01959); assay: Safetyscreen: DAT; format: binding; details: read-out: % Inh. Transporter, Dopamine (DAT)
T13 construct: purchased Eurofins Cereps Panlabs

Opiate μ(OP3, MOP) = target: T14, Opiate μ(OP3, MOP) (Homo sapiens, UniProt P35372); assay: Safetyscreen: Opiate μ; format: binding; details: read-out: % Inh. Opiate μ(OP3, MOP)
T14 construct: Eurofins Cereps Panlabs (contract panel)

[7] = system: Calcium Channel L-Type, Dihydropyridine; assay: Safetyscreen: Ca channel L-type, dihydropyridine; format: binding, rat; details: 10 μM
[8] = system: Glutamate, NMDA, Phencyclidine; assay: Safetyscreen: NMDA, Phencyclidine; format: binding, rat; details: 10 μM
Glutamate, Kainate = assay: Safetyscreen: Glutamate, Kainate; format: binding, rat; details: 10 μM

T1 sequence (P20309 whole entry): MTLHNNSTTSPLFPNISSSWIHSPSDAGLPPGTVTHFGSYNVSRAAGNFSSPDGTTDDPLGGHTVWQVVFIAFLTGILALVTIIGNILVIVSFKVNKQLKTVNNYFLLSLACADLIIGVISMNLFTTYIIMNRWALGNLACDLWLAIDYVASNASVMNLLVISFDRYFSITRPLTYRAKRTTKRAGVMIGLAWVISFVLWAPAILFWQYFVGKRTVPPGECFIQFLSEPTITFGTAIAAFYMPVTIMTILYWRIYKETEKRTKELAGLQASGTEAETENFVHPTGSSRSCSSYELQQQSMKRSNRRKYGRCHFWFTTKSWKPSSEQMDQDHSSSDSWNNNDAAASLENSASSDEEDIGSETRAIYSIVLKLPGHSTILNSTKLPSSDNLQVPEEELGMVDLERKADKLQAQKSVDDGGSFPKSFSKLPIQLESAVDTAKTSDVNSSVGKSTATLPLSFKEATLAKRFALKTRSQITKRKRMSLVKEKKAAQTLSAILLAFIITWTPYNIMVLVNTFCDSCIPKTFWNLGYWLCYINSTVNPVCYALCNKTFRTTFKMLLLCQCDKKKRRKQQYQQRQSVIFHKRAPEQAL

Question: With `CS(=O)(=O)N1CCN(C(=O)c2cnc3ccc(F)cc3c2N2CCC(C#N)(c3ccccc3)CC2)CC1` [Compound C-86, 1-(6-fluoro-3-(4-(methylsulfonyl)piperazine-1-carbonyl)quinolin-4-yl)-4-phenylpiperidine-4-carbonitrile] as the compound, how does the inhibition at 10 µM (Muscarinic M3) read?
Answer: 5%

Question: And the inhibition at 10 µM (Transporter, GABA)?
Answer: 4%

Question: What about the “% Inh. Glycine, Strychnine-Sensitive” value [1] of the same compound?
Answer: 23%

Question: What about the inhibition at 10 µM (Adrenergic β2) of the same compound?
Answer: 11%

Question: And the inhibition at 10 µM (Melanocortin MC4)?
Answer: 13%

Question: And the inhibition at 10 µM (Neuropeptide Y Y1)?
Answer: 11%

Question: And the inhibition at 10 µM [2]?
Answer: 2%

Question: What about the inhibition at 10 µM (Histamine H2) of the same compound?
Answer: -3%

Question: And the inhibition at 10 µM (Tachykinin NK1)?
Answer: 37%

Question: What about the inhibition at 10 µM (Chemokine CCR1) of the same compound?
Answer: 18%

Question: What about the inhibition at 10 µM [3] of the same compound?
Answer: 17%

Question: What about the “% Inh. Calcium Channel L-Type, Phenylalkylamine” value [4] of the same compound?
Answer: 21%

Question: And the “% Inh. Sodium Channel, Site 2” value (Sodium Channel, Site 2)?
Answer: 21%

Question: What about the inhibition at 10 µM (Adrenergic α2B) of the same compound?
Answer: 9%

Question: What about the inhibition at 10 µM (Opiate κ(OP2, KOP)) of the same compound?
Answer: 41%

Question: And the signs of toxicity [5]?
Answer: no signs of toxicity have been observed

Question: And the “frequency of host (murine) DCs and macrophages in the TME” value (monocytes in Huh7 tumors)?
Answer: increased frequency of DCs and reduced frequency of macrophages

Question: What about the “DC differentiation from transplanted human monocytes” value (monocytes in Huh7 tumors; five days after monocyte injection) of the same compound?
Answer: increased DC differentiation

Question: What about the inhibition at 10 µM [6] of the same compound?
Answer: 8%

Question: And the inhibition at 10 µM (Opiate μ(OP3, MOP))?
Answer: 19%

Question: What about the “% Inh. Calcium Channel L-Type, Dihydropyridine” value [7] of the same compound?
Answer: 23%

Question: What about the “% Inh. Glutamate, NMDA, Phencyclidine” value [8] of the same compound?
Answer: 5%

Question: And the “% Inh. Glutamate, Kainate” value (Glutamate, Kainate)?
Answer: 11%
